From ChEMBL document CHEMBL1157497, “Theoretical studies on the structure and symmetry of the transmembrane region of glutamatergic GluR5 receptor” (J Med Chem, 2008) come the findings set out here.

Assay [1] addresses Glutamate NMDA receptor; GRIN1/GRIN2B (Homo sapiens, UniProt Q05586+Q13224). In words: Antagonist activity at NR1/2B receptor expressed in xenopus laevis at pH 6.9 by two electrode voltage clamp method. The class given is functional. A general note: In two-electrode clamp one electrode senses voltage and the other passes current.
Assay [2] is described as follows: Inhibition of NMDA receptor.

The IC50 is the concentration that gives 50% inhibition. Higher therefore signals weaker potency.

Chain of Glutamate NMDA receptor; GRIN1/GRIN2B (Q13224 whole entry, other chains not shown): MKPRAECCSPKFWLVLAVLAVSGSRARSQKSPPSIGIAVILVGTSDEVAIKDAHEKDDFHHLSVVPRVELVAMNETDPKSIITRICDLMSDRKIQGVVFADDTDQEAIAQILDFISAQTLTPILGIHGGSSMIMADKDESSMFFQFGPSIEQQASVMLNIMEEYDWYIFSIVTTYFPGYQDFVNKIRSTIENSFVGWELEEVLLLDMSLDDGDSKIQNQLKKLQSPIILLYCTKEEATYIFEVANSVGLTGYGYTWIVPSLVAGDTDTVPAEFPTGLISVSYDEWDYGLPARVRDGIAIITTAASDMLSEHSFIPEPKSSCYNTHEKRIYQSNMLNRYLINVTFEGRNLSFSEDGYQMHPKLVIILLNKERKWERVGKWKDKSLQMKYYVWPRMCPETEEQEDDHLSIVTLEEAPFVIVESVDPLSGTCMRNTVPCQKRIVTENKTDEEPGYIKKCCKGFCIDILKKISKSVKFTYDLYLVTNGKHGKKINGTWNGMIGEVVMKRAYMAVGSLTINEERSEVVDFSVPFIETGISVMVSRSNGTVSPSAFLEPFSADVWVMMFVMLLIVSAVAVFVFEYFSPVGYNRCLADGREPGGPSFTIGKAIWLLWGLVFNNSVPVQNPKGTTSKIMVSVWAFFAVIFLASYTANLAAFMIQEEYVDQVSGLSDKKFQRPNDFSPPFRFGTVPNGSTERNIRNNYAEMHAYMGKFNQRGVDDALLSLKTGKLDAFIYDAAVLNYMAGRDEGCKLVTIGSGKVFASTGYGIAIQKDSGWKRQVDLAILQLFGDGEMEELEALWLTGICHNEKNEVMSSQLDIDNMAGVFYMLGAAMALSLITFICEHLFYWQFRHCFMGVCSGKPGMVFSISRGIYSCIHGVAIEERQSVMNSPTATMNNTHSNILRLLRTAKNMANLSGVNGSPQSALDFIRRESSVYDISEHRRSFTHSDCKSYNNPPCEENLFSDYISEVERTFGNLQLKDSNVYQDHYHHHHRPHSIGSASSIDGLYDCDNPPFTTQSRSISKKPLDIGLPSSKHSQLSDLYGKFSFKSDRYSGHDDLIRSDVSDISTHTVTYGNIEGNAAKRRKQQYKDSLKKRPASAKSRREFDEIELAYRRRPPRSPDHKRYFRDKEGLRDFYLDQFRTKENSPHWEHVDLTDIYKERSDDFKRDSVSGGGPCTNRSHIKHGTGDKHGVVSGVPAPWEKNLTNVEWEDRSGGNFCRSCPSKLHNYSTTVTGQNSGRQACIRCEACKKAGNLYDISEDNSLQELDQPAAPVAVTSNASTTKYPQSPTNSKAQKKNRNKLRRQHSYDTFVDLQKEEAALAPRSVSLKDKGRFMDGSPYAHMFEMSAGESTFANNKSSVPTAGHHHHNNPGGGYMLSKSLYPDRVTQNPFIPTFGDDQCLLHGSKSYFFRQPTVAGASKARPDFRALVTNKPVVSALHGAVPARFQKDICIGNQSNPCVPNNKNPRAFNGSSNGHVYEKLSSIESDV

`CN1CC[C@@]23CCCC[C@@H]2[C@@H]1Cc1ccc(O)cc13` [DEXTRORPHAN] yielded an IC50 in assay [1] of 0.246 µM.
Turning to `NCCCCCNC1(c2ccccc2)CCCCC1`, the IC50 in assay [2] was found to be 2.1 µM.
